How the values were obtained:
[1] = xn = mol fraction of the nth substance listed; conditions: 101.32 kPa, Liquid, Vibrating tube method
[2] = excess molar enthalpy (molar enthalpy of mixing); xn = mol fraction of the nth substance listed; conditions: 101 kPa, Liquid, Calvet calorimetry

CCCCCCCC [octane] + CCOC(C)=O
Conditions	excess molar enthalpy [kcal/mol]	mass density [kg/m3]
[1], 291.15 K, x2 = 0	–	704.13
[1], 291.15 K, x2 = 0.0296	–	707.15
[1], 291.15 K, x2 = 0.0628	–	710.48
[1], 291.15 K, x2 = 0.1163	–	716.36
[1], 291.15 K, x2 = 0.1605	–	721.46
[1], 291.15 K, x2 = 0.2056	–	727.01
[1], 291.15 K, x2 = 0.2901	–	738.23
[1], 291.15 K, x2 = 0.3723	–	750.35
[1], 291.15 K, x2 = 0.4427	–	761.76
[1], 291.15 K, x2 = 0.5131	–	774.24
[1], 291.15 K, x2 = 0.5744	–	785.94
[1], 291.15 K, x2 = 0.6332	–	798.14
[1], 291.15 K, x2 = 0.6886	–	810.54
[1], 291.15 K, x2 = 0.7414	–	823.25
[1], 291.15 K, x2 = 0.7945	–	836.98
[1], 291.15 K, x2 = 0.84	–	849.83
[1], 291.15 K, x2 = 0.895	–	866.53
[1], 291.15 K, x2 = 0.9304	–	878.05
[1], 291.15 K, x2 = 0.9523	–	885.46
[1], 298.15 K, x2 = 0	–	698.6
[1], 298.15 K, x2 = 0.0485	–	703.3
[1], 298.15 K, x2 = 0.0998	–	708.8
[1], 298.15 K, x2 = 0.1711	–	716.9
[1], 298.15 K, x2 = 0.2518	–	727.02
[1], 298.15 K, x2 = 0.3198	–	736.29
[1], 298.15 K, x2 = 0.3814	–	745.42
[1], 298.15 K, x2 = 0.4622	–	758.48
[1], 298.15 K, x2 = 0.4977	–	764.69
[1], 298.15 K, x2 = 0.5598	–	776.23
[1], 298.15 K, x2 = 0.6548	–	795.8
[1], 298.15 K, x2 = 0.6729	–	799.8
[1], 298.15 K, x2 = 0.6865	–	802.9
[1], 298.15 K, x2 = 0.755	–	819.2
[1], 298.15 K, x2 = 0.7913	–	828.6
[1], 298.15 K, x2 = 0.8335	–	840.2
[1], 298.15 K, x2 = 0.8686	–	850.5
[1], 298.15 K, x2 = 0.9039	–	861.4
[1], 298.15 K, x2 = 0.9578	–	879.3
[1], 318.15 K, x2 = 0	–	682.16
[1], 318.15 K, x2 = 0.034	–	685.37
[1], 318.15 K, x2 = 0.108	–	692.6
[1], 318.15 K, x2 = 0.1961	–	702.19
[1], 318.15 K, x2 = 0.2859	–	713.24
[1], 318.15 K, x2 = 0.3635	–	723.8
[1], 318.15 K, x2 = 0.4203	–	732.23
[1], 318.15 K, x2 = 0.4875	–	743.04
[1], 318.15 K, x2 = 0.5678	–	757.24
[1], 318.15 K, x2 = 0.6088	–	765.1
[1], 318.15 K, x2 = 0.6633	–	776.23
[1], 318.15 K, x2 = 0.7123	–	786.92
[1], 318.15 K, x2 = 0.764	–	799.14
[1], 318.15 K, x2 = 0.8086	–	810.54
[1], 318.15 K, x2 = 0.8487	–	821.51
[1], 318.15 K, x2 = 0.8943	–	834.53
[1], 318.15 K, x2 = 0.932	–	846.34
[1], 318.15 K, x2 = 0.9762	–	860.93
[1], 328.15 K, x2 = 0	–	674.15
[1], 328.15 K, x2 = 0.0441	–	678
[1], 328.15 K, x2 = 0.1138	–	684.7
[1], 328.15 K, x2 = 0.2084	–	694.85
[1], 328.15 K, x2 = 0.2915	–	704.8
[1], 328.15 K, x2 = 0.3741	–	715.9
[1], 328.15 K, x2 = 0.4415	–	725.91
[1], 328.15 K, x2 = 0.5234	–	739.31
[1], 328.15 K, x2 = 0.5735	–	748.22
[1], 328.15 K, x2 = 0.6354	–	760.07
[1], 328.15 K, x2 = 0.6861	–	770.65
[1], 328.15 K, x2 = 0.7435	–	783.45
[1], 328.15 K, x2 = 0.7958	–	796.07
[1], 328.15 K, x2 = 0.8407	–	807.86
[1], 328.15 K, x2 = 0.8822	–	819.28
[1], 328.15 K, x2 = 0.927	–	832.83
[1], 328.15 K, x2 = 0.9737	–	848.01
[2], 291.15 K, x2 = 0.0994	0.146	–
[2], 291.15 K, x2 = 0.1715	0.23	–
[2], 291.15 K, x2 = 0.254	0.303	–
[2], 291.15 K, x2 = 0.3369	0.355	–
[2], 291.15 K, x2 = 0.4081	0.383	–
[2], 291.15 K, x2 = 0.474	0.399	–
[2], 291.15 K, x2 = 0.5317	0.4	–
[2], 291.15 K, x2 = 0.5698	0.392	–
[2], 291.15 K, x2 = 0.5955	0.386	–
[2], 291.15 K, x2 = 0.6441	0.371	–
[2], 291.15 K, x2 = 0.6953	0.344	–
[2], 291.15 K, x2 = 0.7435	0.313	–
[2], 291.15 K, x2 = 0.7996	0.272	–
[2], 291.15 K, x2 = 0.853	0.226	–
[2], 291.15 K, x2 = 0.8967	0.176	–
[2], 291.15 K, x2 = 0.9435	0.118	–
[2], 291.15 K, x2 = 0.981	0.0581	–
[2], 298.15 K, x2 = 0.0774	0.102	–
[2], 298.15 K, x2 = 0.1517	0.178	–
[2], 298.15 K, x2 = 0.2198	0.243	–
[2], 298.15 K, x2 = 0.2861	0.293	–
[2], 298.15 K, x2 = 0.3374	0.326	–
[2], 298.15 K, x2 = 0.3769	0.352	–
[2], 298.15 K, x2 = 0.4335	0.377	–
[2], 298.15 K, x2 = 0.4856	0.384	–
[2], 298.15 K, x2 = 0.5281	0.383	–
[2], 298.15 K, x2 = 0.5773	0.38	–
[2], 298.15 K, x2 = 0.6255	0.371	–
[2], 298.15 K, x2 = 0.6736	0.351	–
[2], 298.15 K, x2 = 0.7261	0.325	–
[2], 298.15 K, x2 = 0.7729	0.292	–
[2], 298.15 K, x2 = 0.8276	0.246	–
[2], 298.15 K, x2 = 0.8796	0.191	–
[2], 298.15 K, x2 = 0.9202	0.129	–
[2], 298.15 K, x2 = 0.9644	0.0648	–
[2], 318.15 K, x2 = 0.0832	0.111	–
[2], 318.15 K, x2 = 0.1591	0.195	–
[2], 318.15 K, x2 = 0.2322	0.267	–
[2], 318.15 K, x2 = 0.3009	0.319	–
[2], 318.15 K, x2 = 0.3637	0.353	–
[2], 318.15 K, x2 = 0.4184	0.374	–
[2], 318.15 K, x2 = 0.4655	0.384	–
[2], 318.15 K, x2 = 0.5112	0.388	–
[2], 318.15 K, x2 = 0.5525	0.386	–
[2], 318.15 K, x2 = 0.5886	0.382	–
[2], 318.15 K, x2 = 0.6324	0.371	–
[2], 318.15 K, x2 = 0.6807	0.355	–
[2], 318.15 K, x2 = 0.7307	0.328	–
[2], 318.15 K, x2 = 0.7788	0.293	–
[2], 318.15 K, x2 = 0.8291	0.248	–
[2], 318.15 K, x2 = 0.8801	0.192	–
[2], 318.15 K, x2 = 0.9259	0.13	–
[2], 318.15 K, x2 = 0.9646	0.0667	–

Reference: the NIST ThermoML archive (doi:10.1021/je100832h)
